Values of other authors, collected in patent publication US5196203A, “Theophylline dosage form” (priority 1989, dated 1993).

In the case of Cn1c(=O)c2[nH]cnc2n(C)c1=O [Theophylline, 1,3-dimethylxanthine], the “Effect at plasma concentrations above 20 mg/L” value is listed as “often associated with theophylline toxicity”.
